These results are taken from patent US20230111310A1, “CARBOXYLIC ACID DERIVATIVE-SUBSTITUTED IMINO ARYL COMPOUND, PREPARATION METHOD THEREFOR, HERBICIDAL COMPOSITION AND USE THEREOF” (Qingdao Kingagroot Chemical Compound Co., Ltd., priority 2020, published 2023).

Holding throughout (type): in vivo
The test system of one data set is cotton. As to the kind of experiment: Pre-emergence stage, crop selectivity. To be noted: 30 g/ha, 4 weeks. The procedure, abridged: (§1)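 Pots were kept in the greenhouse for 4 weeks and then rated for growth control on activity-level criteria. Spraying took place immediately after sowing at application rates of 500 to 7.5 g/ha, using an acetone/tween 80 formulation diluted with water, on seeds under 0.5-2 cm of soil.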

The next data set has as its system corn. In words: Pre-emergence stage, crop selectivity. The note with it: 30 g/ha, 4 weeks. The procedure, abridged: as §1
A further data set relates to Peanut. As to the kind of experiment: Pre-emergence stage, crop selectivity. The note with it: 30 g/ha, 4 weeks. The procedure, abridged: as §1
The next data set deals with Soybeans. As to the kind of experiment: Pre-emergence stage, crop selectivity. To be noted: 30 g/ha, 4 weeks. The procedure, abridged: as §1
Data set [1] has as its system Setaria viridis. In words: Weeding effect in pre-emergence stage. The note with it: 30 g/ha, 4 weeks. The gist of the method: as §1
The test system of data set [2] is Abutilon theophrasti. In words: Weeding effect in pre-emergence stage. The note with it: 30 g/ha, 4 weeks. The procedure, abridged: as §1
Another data set has as its system Descurainia sophia. In words: Weeding effect in pre-emergence stage. The note with it: 30 g/ha, 4 weeks. The procedure, abridged:
as §1

In a further data set the test system is Veronica didyma Tenore. As to the kind of experiment: Weeding effect in pre-emergence stage. To be noted: 30 g/ha, 4 weeks. The procedure, abridged: as §1
A further data set has as its system Capsella bursa-pastoris. In words: Weeding effect in pre-emergence stage. The note with it: 30 g/ha, 4 weeks. The gist of the method:
as §1

The test system of another data set is Amaranthus retroflexus. In words: Weeding effect in pre-emergence stage. To be noted: 30 g/ha, 4 weeks. The procedure, abridged: as §1
The subject of the next data set is Echinochloa crusgalli. As to the kind of experiment: Weeding effect in post-emergence stage. The note with it: Dose 15 g/ha; fresh weight control rate level. The gist of the method: (§2)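 Compound, dissolved in acetone and diluted in water with Tween 80 plus methyl oleate EC (1.5 liter/ha), is sprayed onto 2-3 leaf potted plants. Rates span 7.5–500 g/ha. After 3 weeks of greenhouse culture, weeding effect is counted as the mean of triplicates.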

The test system of data set [3] is Setaria viridis. As to the kind of experiment: Weeding effect in post-emergence stage. To be noted: Dose 15 g/ha; fresh weight control rate level. The gist of the method: as §2
The test system of data set [4] is Abutilon theophrasti. As to the kind of experiment: Weeding effect in post-emergence stage. The note with it: Dose 15 g/ha; fresh weight control rate level. The procedure, abridged: as §2
The next data set has as its system Digitaria sanguinalis. As to the kind of experiment: Weeding effect in post-emergence stage. To be noted: Dose 15 g/ha; fresh weight control rate level. The procedure, abridged:
as §2

The next data set deals with Alopecurus japonicus. As to the kind of experiment: Weeding effect in post-emergence stage. To be noted: Dose 15 g/ha; fresh weight control rate level. The procedure, abridged:
as §2

The next data set concerns Eleusine indica. In words: Weeding effect in post-emergence stage. To be noted: Dose 15 g/ha; fresh weight control rate level. The procedure, abridged: as §2

The structures appear in SMILES notation.

Take `COC(=O)[C@@H](C)O/N=C/c1cc(N2C(=O)CC(N)(C(F)(F)F)N(C)C2=O)c(F)cc1Cl` (stereo partly drawn) [432(R)]: in the data set on cotton, the “plant damage level Cotton” value is 0 (Level 0: growth control rate is less than 5%). Besides, in the data set on corn, the “plant damage level Corn” value is listed as 0 (Level 0: growth control rate is less than 5%). Further, the “plant damage level Peanut” value in the data set with Peanut was 0 (Level 0: growth control rate is less than 5%). Moreover, the “plant damage level Soybeans” value in the data set on Soybeans was 0 (Level 0: growth control rate is less than 5%). Moreover, in the data set on Setaria viridis [1], the “activity level (growth control rate) Setaria viridis” value is 5 (Level 5: growth control rate is above 85%). In the data set on Abutilon theophrasti [2], the “activity level (growth control rate) Abutilon theophrasti” value is listed as 5 (Level 5: growth control rate is above 85%). Also, the “activity level (growth control rate) Descurainia sophia” value with Descurainia sophia was 5 (Level 5: growth control rate is above 85%). Further, the “activity level (growth control rate) Veronica didyma Tenore” value in the data set on Veronica didyma Tenore was 5 (Level 5: growth control rate is above 85%). For the same molecule, in the data set on Capsella bursa-pastoris, the “activity level (growth control rate) Capsella bursa-pastoris” value is 5 (Level 5: growth control rate is above 85%). In addition, the “activity level (growth control rate) Amaranthus retroflexus” value in the data set on Amaranthus retroflexus is listed as 5 (Level 5: growth control rate is above 85%). The “Weeding effect in post-emergence stage, Echinochloa crusgalli (level)” value in the data set on Echinochloa crusgalli was 5 (Level 5: growth control rate is above 85%). In addition, the “Weeding effect in post-emergence stage, Setaria viridis (level)” value with Setaria viridis [3] was 5 (Level 5: growth control rate is above 85%). In addition, in the data set on Abutilon theophrasti [4], the “Weeding effect in post-emergence stage, Abutilon theophrasti (level)” value was 5 (Level 5: growth control rate is above 85%). Also, the “Weeding effect in post-emergence stage, Digitaria sanguinalis (level)” value in the data set with Digitaria sanguinalis is 5 (Level 5: growth control rate is above 85%). The “Weeding effect in post-emergence stage, Alopecurus japonicus (level)” value in the data set with Alopecurus japonicus is on record as 5 (Level 5: growth control rate is above 85%). Moreover, in the data set on Eleusine indica, the “Weeding effect in post-emergence stage, Eleusine indica (level)” value is reported as 5 (Level 5: growth control rate is above 85%).
With `COC(=O)C(C)(C)O/N=C/c1cc(-n2c(=O)cc(C(F)(F)F)n(C)c2=O)c(F)cc1Cl` [Compound 433], the “plant damage level Cotton” value in the data set with cotton is given as 0 (Level 0: growth control rate is less than 5%). In addition, the “plant damage level Corn” value with corn is given as 0 (Level 0: growth control rate is less than 5%). Moreover, in the data set on Peanut, the “plant damage level Peanut” value is recorded as 0 (Level 0: growth control rate is less than 5%). In addition, in the data set with Soybeans, the “plant damage level Soybeans” value is listed as 0 (Level 0: growth control rate is less than 5%). In addition, in the data set on Setaria viridis [1], the “activity level (growth control rate) Setaria viridis” value is listed as 5 (Level 5: growth control rate is above 85%). The “activity level (growth control rate) Abutilon theophrasti” value with Abutilon theophrasti [2] is 5 (Level 5: growth control rate is above 85%). For the same molecule, the “activity level (growth control rate) Descurainia sophia” value with Descurainia sophia is given as 5 (Level 5: growth control rate is above 85%). Further, in the data set with Veronica didyma Tenore, the “activity level (growth control rate) Veronica didyma Tenore” value is on record as 5 (Level 5: growth control rate is above 85%). Also, the “activity level (growth control rate) Capsella bursa-pastoris” value in the data set on Capsella bursa-pastoris is given as 5 (Level 5: growth control rate is above 85%). The “activity level (growth control rate) Amaranthus retroflexus” value with Amaranthus retroflexus is listed as 5 (Level 5: growth control rate is above 85%). Also, the “Weeding effect in post-emergence stage, Echinochloa crusgalli (level)” value in the data set on Echinochloa crusgalli was 5 (Level 5: growth control rate is above 85%). Moreover, the “Weeding effect in post-emergence stage, Setaria viridis (level)” value in the data set with Setaria viridis [3] is reported as 5 (Level 5: growth control rate is above 85%). Also, the “Weeding effect in post-emergence stage, Abutilon theophrasti (level)” value in the data set with Abutilon theophrasti [4] is 5 (Level 5: growth control rate is above 85%). Also, the “Weeding effect in post-emergence stage, Digitaria sanguinalis (level)” value in the data set with Digitaria sanguinalis is 5 (Level 5: growth control rate is above 85%). In addition, the “Weeding effect in post-emergence stage, Alopecurus japonicus (level)” value in the data set with Alopecurus japonicus was 5 (Level 5: growth control rate is above 85%). In addition, the “Weeding effect in post-emergence stage, Eleusine indica (level)” value in the data set on Eleusine indica is on record as 5 (Level 5: growth control rate is above 85%).
